According to patent US20190374533A1, “COMPOUNDS AND METHODS FOR INHIBITING NHE-MEDIATED ANTIPORT IN THE TREATMENT OF DISORDERS ASSOCIATED WITH FLUID RETENTION OR SALT OVERLOAD AND GASTROINTESTINAL TRACT DISORDERS” (Ardelyx, Inc., priority 2008, published 2019):
Structures can show the parent of a compound that is named as a salt. Where two headings read alike, the source gives them in different places.

Key:
[1] = human absorption data; cited from earlier work
[2] = system: fecal water content; experiment: Pharmacodynamic model: effect of test compounds on fecal water content; type: in vivo, rat; conditions: female Sprague Dawley rats, 3 mg/kg oral, feces collected 16 hrs; for % Fecal water: mean of 6
Experimental: Normal female Sprague Dawlev rats (Charles-River laboratories international, Hollister, Calif.), 7-8 weeks old with body weight 175-200 g were acclimated for at least 3 days before proceeding to experiments. The animals were provided food (Harlan Teklad 2018c) and water ad lib, through the experiment. Animals were randomly grouped with 6 rats per group.
The experiments were initiated by orally dosing test compounds at 3 mg/kg in volume of 10 ml/kg. Rats from control group were gavaged with the same volume of vehicle (water). After dosing, rats were placed in metabolic cages for 16 hrs (overnight). Food and water consumption were monitored. After sixteen hours, feces and urine were collected. The percent of fecal water was measured by weighing fecal samples before and after drying.
Representative data of % fecal water content are shown in Table 12 (data are expressed as means, with 6 animals per data point). The differences between control and treated groups were evaluated by one way ANOVA with Dunnett post tests. Results are significant if p<0.05.

[3] = biological target: T1, rat NHE-3 (Rattus norvegicus, UniProt P26433); experiment: Cell-based assay of NHE-3 activity (Pharmacological Test Example 1); conditions: for IC50: read-out: rat NHE-3 Average pIC50 (converted)
T1 construct: expressed in transfected cells; host or cells: Opossum kidney (OK) cells (ATCC), electroporated
T1 sequence (P26433 29-831): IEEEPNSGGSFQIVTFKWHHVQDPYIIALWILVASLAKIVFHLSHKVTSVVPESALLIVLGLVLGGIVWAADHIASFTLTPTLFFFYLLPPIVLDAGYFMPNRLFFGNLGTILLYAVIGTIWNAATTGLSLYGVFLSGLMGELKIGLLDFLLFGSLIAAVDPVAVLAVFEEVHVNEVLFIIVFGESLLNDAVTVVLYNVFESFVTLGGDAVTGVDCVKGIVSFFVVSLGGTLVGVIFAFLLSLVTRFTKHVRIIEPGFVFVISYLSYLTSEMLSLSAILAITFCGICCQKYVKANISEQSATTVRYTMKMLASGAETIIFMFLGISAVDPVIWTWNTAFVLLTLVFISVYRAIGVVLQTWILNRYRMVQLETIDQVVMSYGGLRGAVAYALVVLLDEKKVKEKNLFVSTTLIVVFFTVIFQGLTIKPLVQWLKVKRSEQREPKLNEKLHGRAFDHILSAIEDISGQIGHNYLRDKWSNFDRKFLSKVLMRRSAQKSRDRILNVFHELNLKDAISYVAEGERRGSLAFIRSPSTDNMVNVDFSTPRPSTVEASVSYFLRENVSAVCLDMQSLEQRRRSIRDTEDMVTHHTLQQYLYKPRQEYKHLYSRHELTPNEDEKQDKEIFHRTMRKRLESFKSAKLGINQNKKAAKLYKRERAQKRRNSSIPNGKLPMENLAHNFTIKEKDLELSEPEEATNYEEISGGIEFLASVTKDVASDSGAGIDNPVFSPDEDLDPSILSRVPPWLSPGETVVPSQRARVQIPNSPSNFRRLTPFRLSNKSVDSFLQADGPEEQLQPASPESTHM
Summary of the method: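 OK cells electroporated with rat NHE-3, loaded with 5 uM BCECF-AM in NH4Cl-HEPES (pH 7.4) for 30 min at room temperature, then acid-loaded 10 min in Na+-free choline buffer. Na+-dependent H+ antiport read as initial rate of pH-dye change; pIC50 from 3-6 replicate averages.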

[4] = Determination of compound Cmax and AUC; type: in vivo; conditions: rat; Sprague-Dawley rats, oral gavage, serum 0.5-4 h; actual oral dose (mg/kg) given
Summary of the method: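 Sprague-Dawley rats dosed orally by gavage at 2.5 mg/kg; serum sampled at 0.5, 1, 2 and 4 h. Acetonitrile protein precipitation, then LC/MS/MS quantitation against a standard curve.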

[5] = Parallel artificial membrane permeability assay (PAMPA); conditions: pH 7.4
[6] = OK cells expressing rat NHE-3, 0-30 uM test compound, 5 uM EIPA

| rat NHE-3 Average pIC50 [3, 6] | Papp A→B at 3 h, 20 uM [5] [×10⁻⁶ cm/s] | SMILES | % Fecal water (% of control) [2] | % Fecal water [2] [%] | other results |
| --- | --- | --- | --- | --- | --- |
| – | – | CCN1CCCC1CNC(=O)c1cc(S(N)(=O)=O)ccc1OC (centres unmarked) [sulpiride] | – | – | % FA [1]: 36% |
| – | – | C=CCc1ccccc1OCC(O)CNC(C)C (centres unmarked) [alprenolol] | – | – | % FA [1]: 96% |
| – | – | NC[C@H]1CC[C@H](C(=O)O)CC1 [tranexamic acid] | – | – | % FA [1]: 55% |
| 6 to 7 | – | CN1Cc2c(Cl)cc(Cl)cc2C(c2ccc(S(=O)(=O)NCCOCCOCCNC(=O)COCC(=O)NCCOCCOCCNS(=O)(=O)c3ccc(C4CN(C)Cc5c(Cl)cc(Cl)cc54)cc3)cc2)C1 (centres unmarked) [Example 178, 2,2′-oxybis(N-(2-(2-(2-(4-(6,8-dichloro-2-methyl-1,2,3,4-tetrahydroisoquinolin-4-yl)phenylsulfonamido)ethoxy)ethoxy)ethyl)acetamide)] | 118% of control | 59 | AUC [4]: < 2 ng·h/mL; Cmax [4]: < 2 ng/mL |
| 6 to 7 | 0.3 | NC(N)=Nc1nc(-c2ccc(N3CCN(CCO)CC3)cc2)c2cc(Cl)ccc2n1 [Example 69, 2-(6-chloro-4-(4-(4-(2-hydroxyethyl)piperazin-1-yl)phenyl)quinazolin-2-yl)guanidine] | – | – | – |
| – | – | OC[C@H]1O[C@@H](O[C@@H]2[C@@H](CO)OC(O)(CO)[C@H]2O)[C@H](O)[C@@H](O)[C@H]1O (mixture of isomers) [lactulose, reference compound] | – | – | % FA [1]: 0.6% |
| – | – | O=C(O)P(=O)(O)O [foscarnet] | – | – | % FA [1]: 17% |
| 6 to 7 | 0.35 | NC(N)=Nc1nc(-c2cccc(N3CCN(CCO)CC3)c2)c2cc(Cl)ccc2n1 [Example 68, 2-(6-chloro-4-(3-(4-(2-hydroxyethyl)piperazin-1-yl)phenyl)quinazolin-2-yl)guanidine] | – | – | – |
| – | – | CN1Cc2c(Cl)cc(Cl)cc2C(c2ccc(S(=O)(=O)NCCOCCOCCNC(=O)CCC(=O)NCCOCCOCCNS(=O)(=O)c3ccc(C4CN(C)Cc5c(Cl)cc(Cl)cc54)cc3)cc2)C1 (centres unmarked) [Example 177, N1,N4-bis(2-(2-(2-(4-(6,8-dichloro-2-methyl-1,2,3,4-tetrahydroisoquinolin-4-yl)phenylsulfonamido)ethoxy)ethoxy)ethyl)succinamide] | 121% of control | 60 | rat NHE-3 Average pIC50 [3]: >7; AUC [4]: < 4 ng·h/mL; Cmax [4]: < 3.2 ng/mL |
| – | – | CN1Cc2c(Cl)cc(Cl)cc2C(c2ccc(S(=O)(=O)NCCOCCOCCNC(=O)NCCCCNC(=O)NCCOCCOCCNS(=O)(=O)c3ccc(C4CN(C)Cc5c(Cl)cc(Cl)cc54)cc3)cc2)C1 (centres unmarked) [Example 238, N,N′-(10,17-dioxo-3,6,21,24-tetraoxa-9,11,16,18-tetraazahexacosane-1,26-diyl)bis(4-(6,8-dichloro-2-methyl-1,2,3,4-tetrahydroisoquinolin-4-yl)benzenesulfonamide)] | 121% of control | 60 | – |
| >7 | – | CN1Cc2c(Cl)cc(Cl)cc2C(c2cccc(S(=O)(=O)NCCOCCOCCNC(=O)Nc3ccc(NC(=O)NCCOCCOCCNS(=O)(=O)c4cccc(C5CN(C)Cc6c(Cl)cc(Cl)cc65)c4)cc3)c2)C1 (centres unmarked) [Example 237, N,N′-(2,2′-(2,2′-(2,2′-(1,4-phenylenebis(azanediyl))bis(oxomethylene)bis(azanediyl)bis(ethane-2,1-diyl))bis(oxy)bis(ethane-2,1-diyl))bis(oxy)bis(ethane-2,1-diyl))bis(3-(6,8-dichloro-2-methyl-1,2,3,4-tetrahydroisoquinolin-4-yl)benzenesulfonamide)] | 120% of control | 60 | – |
| – | – | CN1Cc2c(Cl)cc(Cl)cc2[C@H](c2ccc(S(=O)(=O)NCCOCCOCCNC(=O)CCC(=O)NCCOCCOCCNS(=O)(=O)c3ccc([C@@H]4CN(C)Cc5c(Cl)cc(Cl)cc54)cc3)cc2)C1 (single isomer, unassigned) [Example 200, N1,N4-bis(2-(2-(2-(4-((S or R)-6,8-dichloro-2-methyl-1,2,3,4-tetrahydroisoquinolin-4-yl)phenylsulfonamido)ethoxy)ethoxy)ethyl)succinamide bis-hydrochloride salt] | 124% of control | 62 | IC50 [3, 6]: < 100 nM |
| – | – | CN1Cc2c(Cl)cc(Cl)cc2C(c2ccc(S(=O)(=O)NCCOCCOCCNC(=O)Nc3ccc(NC(=O)NCCOCCOCCNS(=O)(=O)c4ccc(C5CN(C)Cc6c(Cl)cc(Cl)cc65)cc4)cc3)cc2)C1 (centres unmarked) [Example 239, N,N′-(2,2′-(2,2′-(2,2′-(1,4-phenylenebis(azanediyl))bis(oxomethylene)bis(azanediyl)bis(ethane-2,1-diyl))bis(oxy)bis(ethane-2,1-diyl))bis(oxy)bis(ethane-2,1-diyl))bis(4-(6,8-dichloro-2-methyl-1,2,3,4-tetrahydroisoquinolin-4-yl)benzenesulfonamide)] | 114% of control | 58 | – |
| >7 | – | CN1Cc2c(Cl)cc(Cl)cc2C(c2cccc(S(=O)(=O)NCCOCCOCCNC(=O)NCCCCNC(=O)NCCOCCOCCNS(=O)(=O)c3cccc(C4CN(C)Cc5c(Cl)cc(Cl)cc54)c3)c2)C1 (centres unmarked) [Example 236, N,N′-(10,17-dioxo-3,6,21,24-tetraoxa-9,11,16,18-tetraazahexacosane-1,26-diyl)bis(3-(6,8-dichloro-2-methyl-1,2,3,4-tetrahydroisoquinolin-4-yl)benzenesulfonamide)] | 128% of control | 64 | – |
| 5 to 6 | 0.43 | NC(N)=Nc1nc(-c2cccc(N3CCN(C(=O)[C@H](O)[C@@H](O)[C@H](O)[C@H](O)CO)CC3)c2)c2cc(Cl)ccc2n1 [Example 63, 2-(6-chloro-4-(3-(4-((2R,3S,4R,5R)-2,3,4,5,6-pentahydroxyhexanoyl)piperazin-1-yl)phenyl)quinazolin-2-yl)guanidine] | – | – | – |
| – | – | CN1Cc2c(Cl)cc(Cl)cc2[C@H](c2ccc(S(=O)(=O)NCCOCCOCCOCCNC(=O)NCCOCCOCCOCCNS(=O)(=O)c3ccc([C@@H]4CN(C)Cc5c(Cl)cc(Cl)cc54)cc3)cc2)C1 (single isomer, unassigned) [Example 250, (S or R)—N,N′-(13-oxo-3,6,9,17,20,23-hexaoxa-12,14-diazapentacosane-1,25-diyl)bis(4-((S or R)-6,8-dichloro-2-methyl-1,2,3,4-tetrahydroisoquinolin-4-yl)benzenesulfonamide)] | 120% of control | 60 | IC50 [3]: < 100 nM |
| – | – | CN1Cc2c(Cl)cc(Cl)cc2C(c2cccc(S(=O)(=O)NCCOCCOCCNC(=O)c3ccc(C(=O)NCCOCCOCCNS(=O)(=O)c4cccc(C5CN(C)Cc6c(Cl)cc(Cl)cc65)c4)cc3)c2)C1 (centres unmarked) [Example 234, N1,N4-bis(2-(2-(2-(3-(6,8-dichloro-2-methyl-1,2,3,4-tetrahydroisoquinolin-4-yl)phenylsulfonamido)ethoxy)ethoxy)ethyl)terephthalamide] | 117% of control | 58 | rat NHE-3 Average pIC50 [3]: 5 to 6; AUC [4]: < 2 ng·h/mL; Cmax [4]: < 2 ng/mL |
| 5 to 6 | 1.61 | C/C(=C\c1cc(F)c(Oc2ccc(S(=O)(=O)NCc3ccc(CP(=O)(O)O)cc3)cc2)c(F)c1)C(=O)N=C(N)N [Example 52, (E)-4-((4-(4-(3-(diaminomethyleneamino)-2-methyl-3-oxoprop-1-enyl)-2,6-difluorophenoxy)phenylsulfonamido)methyl)benzylphosphonic acid] | – | – | – |
| 5 to 6 | 0.61 | CN1Cc2c(Cl)cc(Cl)cc2C(c2cccc(NS(=O)(=O)NCCP(=O)(O)O)c2)C1 (centres unmarked) [Example 31, 2-(N-(3-(6,8-dichloro-2-methyl-1,2,3,4-tetrahydroisoquinolin-4-yl)phenyl)sulfamoylamino)ethylphosphonic acid] | – | – | – |
| >7 | < 0.01 | C/C(=C\c1cc(F)c(Oc2ccc(S(=O)(=O)NCCOCCOCCOCCNC(=O)CCCCCCC(=O)NCCOCCOCCOCCNS(=O)(=O)c3ccc(Oc4c(F)cc(/C=C(\C)C(=O)N=C(N)N)cc4F)cc3)cc2)c(F)c1)C(=O)N=C(N)N [Example 47, N,N′-(13,20 dioxo-3,6,9, 24, 27, 30-hexaoxa-12, 21-diazadotriacontane-1,32-diyl)bis[(E)-N-(diaminomethylene)-3-(3,5-difluoro-4-(4-sulfamoylphenoxy)phenyl)-2-methylacrylamide]] | – | – | – |

| SMILES | rat NHE-3 Average pIC50 [3, 6] | Papp A→B at 3 h, 20 uM [5] [×10⁻⁶ cm/s] | % Fecal water (% of control) [2] | % Fecal water [2] [%] | other results |
| --- | --- | --- | --- | --- | --- |
| CN1Cc2c(Cl)cc(Cl)cc2C(c2ccc(NS(=O)(=O)NCCP(=O)([O-])[O-])cc2)C1.[Na+].[Na+] (centres unmarked) [Example 30, 2-(N-(4-(6,8-dichloro-2-methyl-1,2,3,4-tetrahydroisoquinolin-4-yl)phenyl)sulfamoylamino)ethylphosphonic acid] | 5 to 6 | 0.56 | – | – | – |
